HELM strings list units from the 5' end as sugar, base in round brackets, then linkage (d deoxyribose, r ribose, m 2'-O-methyl, p phosphodiester). Strings are as the collection lists them; they lack the last nucleoside at the 3' end of the tested compound. [moe] = 2'-O-(2-methoxyethyl) (MOE); [sp] = phosphorothioate linkage; [m5C] = 5-methylcytosine

The target in this data set is SCN2A. The data set can be described thus: mouse, dose not given. Particulars: ASO.
In turn, “RNA1{[moe](G)[sp].[moe](T)p.[moe](A)p.[moe](A)p.[moe]([m5C])p.[moe]([m5C])p.d(T)[sp].d(T)[sp].d(T)[sp].d(A)[sp].d(T)[sp].d(A)[sp].d([m5C])[sp].d(A)[sp].d(T)[sp].d(T)[sp].[moe](T)p.[moe](A)[sp].[moe](A)}$$$$ (last 3' nucleoside missing)” displayed a 3 h FOB score of 0 score 0-7.

The substance “RNA1{[moe](A)[sp].[moe](A)p.[moe](T)p.[moe](T)p.d([m5C])[sp].d(T)[sp].d(A)[sp].d(T)[sp].d(T)[sp].d(T)[sp].d(T)[sp].d(A)[sp].d(T)[sp].d(A)[sp].[moe](A)p.[moe](A)p.[moe](T)p.[moe](G)[sp].[moe]([m5C])}$$$$ (last 3' nucleoside missing)” returned a 3 h FOB score of 0 score 0-7.

Substance “RNA1{[moe](G)[sp].[moe](A)p.[moe]([m5C])p.[moe]([m5C])p.d(A)[sp].d([m5C])[sp].d(G)[sp].d([m5C])[sp].d(T)[sp].d(T)[sp].d(A)[sp].d([m5C])[sp].d(A)[sp].d(T)[sp].[moe]([m5C])p.[moe](A)p.[moe](A)p.[moe](A)[sp].[moe]([m5C])}$$$$ (last 3' nucleoside missing)” displayed a 3 h FOB score of 4 score 0-7.

In turn, “RNA1{[moe](G)[sp].[moe]([m5C])p.[moe](A)p.[moe](T)p.d(G)[sp].d(T)[sp].d(A)[sp].d(A)[sp].d([m5C])[sp].d([m5C])[sp].d(T)[sp].d(T)[sp].d(T)[sp].d(A)[sp].[moe](T)p.[moe](A)p.[moe]([m5C])p.[moe](A)[sp].[moe](T)}$$$$ (last 3' nucleoside missing)” registered a 3 h FOB score of 0 score 0-7.

“RNA1{[moe]([m5C])[sp].[moe]([m5C])p.[moe](A)p.[moe]([m5C])p.[moe](G)p.[moe](A)p.d([m5C])[sp].d(A)[sp].d(T)[sp].d(A)[sp].d(T)[sp].d(T)[sp].d(T)[sp].d(T)[sp].d(T)[sp].d([m5C])[sp].[moe](T)p.[moe](A)[sp].[moe]([m5C])}$$$$ (last 3' nucleoside missing)”: the 3 h FOB score was found to be 0 score 0-7.

Regarding “RNA1{[moe]([m5C])[sp].[moe](A)p.[moe](T)p.[moe](G)p.[moe]([m5C])p.[moe](A)p.d(T)[sp].d(A)[sp].d(A)[sp].d(T)[sp].d([m5C])[sp].d([m5C])[sp].d([m5C])[sp].d(A)[sp].d(T)[sp].d(T)[sp].[moe](A)p.[moe](T)[sp].[moe](A)}$$$$ (last 3' nucleoside missing)”, the 3 h FOB score amounted to 0 score 0-7.

On to “RNA1{[moe]([m5C])[sp].[moe]([m5C])p.[moe](A)p.[moe]([m5C])p.[moe](G)p.d([m5C])[sp].d(T)[sp].d(T)[sp].d(A)[sp].d([m5C])[sp].d(A)[sp].d(T)[sp].d([m5C])[sp].d(A)[sp].d(A)[sp].[moe](A)p.[moe]([m5C])p.[moe](A)[sp].[moe](T)}$$$$ (last 3' nucleoside missing)”, for which the 3 h FOB score is 0 score 0-7.

“RNA1{[moe]([m5C])[sp].[moe](A)p.[moe](T)p.[moe](A)p.d(A)[sp].d(T)[sp].d([m5C])[sp].d([m5C])[sp].d([m5C])[sp].d(A)[sp].d(T)[sp].d(T)[sp].d(A)[sp].d(T)[sp].[moe](A)p.[moe]([m5C])p.[moe](A)p.[moe](A)[sp].[moe](A)}$$$$ (last 3' nucleoside missing)”: the 3 h FOB score worked out at 0 score 0-7.

In the case of “RNA1{[moe](A)[sp].[moe](T)p.[moe]([m5C])p.[moe](A)p.[moe](T)p.[moe](G)p.d([m5C])[sp].d(A)[sp].d(T)[sp].d(A)[sp].d(A)[sp].d(T)[sp].d([m5C])[sp].d([m5C])[sp].d([m5C])[sp].d(A)[sp].[moe](T)p.[moe](T)[sp].[moe](A)}$$$$ (last 3' nucleoside missing)”, the 3 h FOB score is 0 score 0-7.

“RNA1{[moe](T)[sp].[moe](G)p.[moe]([m5C])p.[moe](A)p.[moe](T)[sp].d(G)[sp].d(T)[sp].d(A)[sp].d(A)[sp].d([m5C])[sp].d([m5C])[sp].d(T)[sp].d(T)[sp].[moe](T)p.[moe](A)p.[moe](T)[sp].[moe](A)}$$$$ (last 3' nucleoside missing)” gave a 3 h FOB score of 0 score 0-7.

“RNA1{[moe]([m5C])[sp].[moe](A)p.[moe](G)p.[moe]([m5C])p.d(A)[sp].d(T)[sp].d(A)[sp].d(T)[sp].d(T)[sp].d([m5C])[sp].d(T)[sp].d(A)[sp].d(A)[sp].d([m5C])[sp].[moe](A)p.[moe](T)p.[moe](G)p.[moe](G)[sp].[moe](T)}$$$$ (last 3' nucleoside missing)” had a 3 h FOB score of 0 score 0-7.

For the substance “RNA1{[moe](A)[sp].[moe](G)p.[moe]([m5C])p.[moe](T)p.[moe]([m5C])p.d(T)[sp].d(T)[sp].d(T)[sp].d(T)[sp].d(T)[sp].d([m5C])[sp].d(A)[sp].d([m5C])[sp].d(T)[sp].d(T)[sp].[moe](T)p.[moe](T)p.[moe](G)[sp].[moe](G)}$$$$ (last 3' nucleoside missing)”, the 3 h FOB score was 0.67 score 0-7.

The substance “RNA1{[moe]([m5C])[sp].[moe](G)p.[moe](T)p.[moe]([m5C])p.d(T)[sp].d([m5C])[sp].d(T)[sp].d(T)[sp].d(T)[sp].d([m5C])[sp].d(T)[sp].d(T)[sp].d(A)[sp].d(T)[sp].[moe](T)p.[moe](T)p.[moe]([m5C])p.[moe](T)[sp].[moe](G)}$$$$ (last 3' nucleoside missing)” registered a 3 h FOB score of 1 score 0-7.

For the substance “RNA1{[moe](A)[sp].[moe](T)p.[moe](G)p.[moe](T)p.[moe](A)p.d(A)[sp].d(T)[sp].d([m5C])[sp].d(A)[sp].d([m5C])[sp].d(T)[sp].d(T)[sp].d(T)[sp].d([m5C])[sp].d(A)[sp].[moe](T)p.[moe]([m5C])p.[moe]([m5C])[sp].[moe](A)}$$$$ (last 3' nucleoside missing)”, the 3 h FOB score worked out at 0 score 0-7.

“RNA1{[moe](T)[sp].[moe]([m5C])p.[moe](A)p.[moe](T)p.d(G)[sp].d([m5C])[sp].d(A)[sp].d(T)[sp].d(A)[sp].d(A)[sp].d(T)[sp].d([m5C])[sp].d([m5C])[sp].d([m5C])[sp].[moe](A)p.[moe](T)p.[moe](T)p.[moe](A)[sp].[moe](T)}$$$$ (last 3' nucleoside missing)” displayed a 3 h FOB score of 0 score 0-7.

Take “RNA1{[moe]([m5C])[sp].[moe](A)p.[moe](T)p.[moe](G)[sp].d(T)[sp].d(A)[sp].d(A)[sp].d([m5C])[sp].d([m5C])[sp].d(T)[sp].d(T)[sp].d(T)[sp].[moe](A)p.[moe](T)p.[moe](A)p.[moe]([m5C])[sp].[moe](A)}$$$$ (last 3' nucleoside missing)”: the 3 h FOB score was determined as 0 score 0-7.

As for “RNA1{[moe](A)[sp].[moe]([m5C])p.[moe]([m5C])p.[moe](G)p.[moe](A)p.d(A)[sp].d(T)[sp].d(T)[sp].d([m5C])[sp].d(T)[sp].d(A)[sp].d(T)[sp].d(T)[sp].d(T)[sp].d(T)[sp].[moe](A)p.[moe](T)p.[moe](A)[sp].[moe](A)}$$$$ (last 3' nucleoside missing)”, the 3 h FOB score was found to be 1.67 score 0-7.

“RNA1{[moe](A)[sp].[moe](T)p.[moe]([m5C])p.[moe](A)p.[moe]([m5C])p.d(T)[sp].d(T)[sp].d(T)[sp].d([m5C])[sp].d(A)[sp].d(T)[sp].d([m5C])[sp].d([m5C])[sp].d(A)[sp].d([m5C])[sp].[moe](G)p.[moe](A)p.[moe]([m5C])[sp].[moe](A)}$$$$ (last 3' nucleoside missing)”: the 3 h FOB score turned out to be 1 score 0-7.

For the origin of these results see the OligoGym collection.
